One block for each compound: values may come before it. Active and inactive are the calls of the source.
Assays:
Protein Wnt-3a = Protein Wnt-3a (Mus musculus, UniProt P27467); assay: Wnt3a-driven reporter signaling inhibition, dose response, selectivity assay for Gli-SUFU antagonist project, Wnt-LIGHT cells, luminescence (AID 651570); format: functional; conditions: read-out: IC50_Mean;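 further: Wnt-LIGHT reporter cells stimulated with conditioned medium from Wnt3a-producing cells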
[1] = target: T1, Tyrosine-protein phosphatase non-receptor type 11 (Homo sapiens, UniProt Q06124); assay: SHP2 phosphatase inhibition, dose response, selectivity assay for STEP inhibitor project, biochemical (AID 602367); format: functional; conditions: read-out: IC50_Mean
T1 sequence (Q06124 whole entry): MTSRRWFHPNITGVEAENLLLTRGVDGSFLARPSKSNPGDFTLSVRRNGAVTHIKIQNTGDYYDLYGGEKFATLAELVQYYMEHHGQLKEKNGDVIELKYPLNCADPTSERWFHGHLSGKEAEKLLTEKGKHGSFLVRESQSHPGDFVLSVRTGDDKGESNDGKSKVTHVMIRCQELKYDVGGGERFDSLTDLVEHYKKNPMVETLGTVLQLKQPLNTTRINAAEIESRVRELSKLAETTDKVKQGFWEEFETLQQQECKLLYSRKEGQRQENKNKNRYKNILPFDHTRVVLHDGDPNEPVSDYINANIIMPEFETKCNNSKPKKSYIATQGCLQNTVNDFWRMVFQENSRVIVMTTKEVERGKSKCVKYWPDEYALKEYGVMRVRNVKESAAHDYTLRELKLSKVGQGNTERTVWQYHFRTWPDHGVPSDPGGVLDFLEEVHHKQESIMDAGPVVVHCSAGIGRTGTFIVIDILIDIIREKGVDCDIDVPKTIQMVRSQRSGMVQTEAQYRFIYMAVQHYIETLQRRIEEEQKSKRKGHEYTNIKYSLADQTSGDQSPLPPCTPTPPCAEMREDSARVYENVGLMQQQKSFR

[2] = target: T2, Tyrosine-protein phosphatase non-receptor type 5 (Homo sapiens, UniProt P54829); assay: STEP phosphatase inhibitors, confirmation, biochemical, fluorescence intensity, uHTS hits (AID 602372); format: functional; conditions: read-out: IC50_Mean
T2 sequence (P54829 whole entry): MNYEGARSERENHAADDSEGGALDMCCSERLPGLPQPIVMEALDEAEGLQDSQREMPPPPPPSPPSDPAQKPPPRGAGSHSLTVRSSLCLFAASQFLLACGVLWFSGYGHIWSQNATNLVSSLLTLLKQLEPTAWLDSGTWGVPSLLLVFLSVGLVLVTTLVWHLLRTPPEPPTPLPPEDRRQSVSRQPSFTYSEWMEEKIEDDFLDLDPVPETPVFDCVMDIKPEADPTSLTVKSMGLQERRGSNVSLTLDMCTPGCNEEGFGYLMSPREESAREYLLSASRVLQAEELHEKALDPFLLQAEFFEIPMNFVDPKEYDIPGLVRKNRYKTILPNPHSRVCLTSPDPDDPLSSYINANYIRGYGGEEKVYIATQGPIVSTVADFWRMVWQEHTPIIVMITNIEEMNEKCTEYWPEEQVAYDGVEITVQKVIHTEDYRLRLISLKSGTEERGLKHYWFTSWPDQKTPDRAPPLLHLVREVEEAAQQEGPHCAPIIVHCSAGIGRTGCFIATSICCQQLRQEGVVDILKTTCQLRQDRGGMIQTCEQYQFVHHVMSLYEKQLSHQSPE

[3] = target: Dual specificity protein phosphatase 3 (Homo sapiens, UniProt P51452); assay: VHR phosphatase inhibition, dose response, selectivity assay for STEP inhibitor project, biochemical (AID 602374); format: functional; conditions: read-out: IC50_Mean
[4] = HepG2 cell cytotoxicity, dose response, cytotoxicity control, plate reader, cherry-pick, antagonist series (AID 743416); format: functional, cell-based
[5] = target: T3, Small ubiquitin-related modifier 1 (Homo sapiens, UniProt P63165); assay: inhibitors of SUMO1 partner interactions, dose response, biochemical, FRET (AID 624383); format: functional; conditions: read-out: IC50_Mean
[6] = target: T4, Carboxy-terminal domain RNA polymerase II polypeptide A small phosphatase 1 (Homo sapiens, UniProt Q9GZU7); assay: inhibitors of CTDSP1, concentration-response testing, biochemical assay, absorbance-based, actives from ultra-high-throughput screening (AID 540297); format: functional
T4 sequence (Q9GZU7 whole entry): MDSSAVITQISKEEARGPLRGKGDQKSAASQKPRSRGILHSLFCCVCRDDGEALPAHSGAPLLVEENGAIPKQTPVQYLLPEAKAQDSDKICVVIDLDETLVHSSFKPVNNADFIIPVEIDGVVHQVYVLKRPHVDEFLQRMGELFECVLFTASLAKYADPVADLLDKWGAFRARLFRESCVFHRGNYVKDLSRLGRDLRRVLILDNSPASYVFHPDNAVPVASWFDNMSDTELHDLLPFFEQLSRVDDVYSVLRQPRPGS

[7] = target: T3, Small ubiquitin-related modifier 1; assay: inhibitors of SUMO1 peptide binding, dose response, biochemical, fluorescence polarization, uHTS hits (AID 624382); format: functional; conditions: read-out: IC50_Mean
cells = format: functional, cell-based; conditions: HEK-CNG
Galanin receptor type 3 = target: T5, Galanin receptor type 3 (Homo sapiens, UniProt O60755); assay: Fluorescence-based cell-based primary high throughput dose response assay to identify antagonists of the Galanin Receptor 3 (GalR3).; format: functional
T5 sequence (O60755 whole entry): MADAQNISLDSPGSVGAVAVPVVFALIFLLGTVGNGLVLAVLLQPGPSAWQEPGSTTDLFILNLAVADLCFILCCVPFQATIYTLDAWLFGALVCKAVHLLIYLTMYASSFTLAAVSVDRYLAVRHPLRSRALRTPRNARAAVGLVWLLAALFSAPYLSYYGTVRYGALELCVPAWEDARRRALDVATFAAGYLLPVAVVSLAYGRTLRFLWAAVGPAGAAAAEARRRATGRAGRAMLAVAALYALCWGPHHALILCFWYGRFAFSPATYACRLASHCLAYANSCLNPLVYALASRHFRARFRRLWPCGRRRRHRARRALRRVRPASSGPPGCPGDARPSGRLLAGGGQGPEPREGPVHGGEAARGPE

[8] = cytotoxicity in HEK-293T cells, dose response, cytotoxicity control for TCR NF-kB inhibitor project, luminescence, T-cell screen hits (AID 489026); format: functional, cell-based;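 further: cells exposed to compound about 14 hours before the viability readout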
[9] = Shn3 3'UTR reporter inhibitors, dose response, cell-based, Clone20 osteoblasts, firefly luciferase, cherry-picked (AID 624132); format: functional;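 further: firefly luciferase luminescence from reporter carrying the Shn3 3'UTR in osteoblasts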
INS1 = assay: beta cell apoptosis inhibitors, cytokine rescue, dose response, luminescence, retest (AID 449756); format: functional, cell-based; conditions: Rattus norvegicus;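 further: cell death triggered by IL-1 beta plus TNF-alpha plus IFN-gamma mixture; protective hits raise ATP signal compared with cytokine alone wells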
[10] = HepG2 cell cytotoxicity, dose response, cytotoxicity control for Shn3 inhibitor project, CellTiter-Glo, cherry-picked (AID 624134); format: functional, cell-based
[11] = control 3'UTR Renilla luciferase suppression, dose response, counter-screen for Shn3 inhibitor project, cell-based, Clone20-Shn3RL, cherry-picked (AID 624133); format: functional
[12] = MC4R antagonists, dose response, counter-screen for LGR2 antagonist project, cell-based, plate reader, cherry pick (AID 743444); format: functional;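 further: transfected HEK 293 cells stimulated with alpha-MSH peptide; potency of inhibitors of the alpha-MSH evoked signal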
[13] = A549 cell cytotoxicity, dose response, cytotoxicity control, plate reader, cherry-pick, antagonist series (AID 743412); format: functional, cell-based
[14] = LGR2 antagonists, dose response, cell-based, HEK293, CRE-luciferase reporter, cherry pick, set 2 (AID 743343); format: functional;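 further: transfected cells were stimulated with diluted bursicon conditioned medium after compound addition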
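Wherever EC50 is given: target is galanin receptor GalR3 read with a cAMP biosensor in HEK293 cells.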

T3 sequence (P63165 whole entry, the tested form may be a part): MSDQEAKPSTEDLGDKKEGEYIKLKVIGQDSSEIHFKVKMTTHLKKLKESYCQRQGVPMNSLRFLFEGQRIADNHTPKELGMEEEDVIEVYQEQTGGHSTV
Protein Wnt-3a, sequence (P27467 whole entry): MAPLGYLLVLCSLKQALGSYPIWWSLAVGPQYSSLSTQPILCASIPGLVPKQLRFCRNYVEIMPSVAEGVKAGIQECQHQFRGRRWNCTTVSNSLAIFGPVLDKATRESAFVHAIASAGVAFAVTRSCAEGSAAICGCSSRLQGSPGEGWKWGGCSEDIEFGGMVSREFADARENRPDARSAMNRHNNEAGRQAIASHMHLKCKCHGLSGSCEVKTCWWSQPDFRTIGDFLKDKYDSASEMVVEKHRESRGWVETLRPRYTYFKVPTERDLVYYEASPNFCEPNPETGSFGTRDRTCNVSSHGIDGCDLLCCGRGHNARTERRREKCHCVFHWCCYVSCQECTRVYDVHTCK
Dual specificity protein phosphatase 3, sequence (P51452 whole entry): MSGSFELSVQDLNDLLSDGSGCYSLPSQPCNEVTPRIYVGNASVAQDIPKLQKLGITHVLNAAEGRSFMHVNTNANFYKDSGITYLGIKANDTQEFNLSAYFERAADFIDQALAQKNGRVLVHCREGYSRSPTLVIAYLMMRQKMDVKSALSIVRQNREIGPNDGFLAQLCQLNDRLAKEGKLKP

IC50 (Protein Wnt-3a): 28.9 µM (inactive)
Structure (SMILES): CNS(=O)(=O)c1cccc(C(=O)OCC(=O)c2cc(C)n(CC3CCCO3)c2C)c1 (stereo not drawn)

IC50 [1]: 5.47 µM (active)
IC50 [2]: 15.6 µM (active)
IC50 [3]: 0.927 µM (active)
Structure (SMILES): Cc1sc2nc(CSC(C)C(=O)Nc3ccc(Cl)cn3)nc(O)c2c1C (stereo not drawn)

Structure (SMILES): COc1ccc(N(CC(=O)NCc2cccs2)S(=O)(=O)c2ccc(C(C)=O)cc2)cc1
AC50 [4]: > 52 µM (inactive)

Structure (SMILES): CCOC(=O)c1cc(-c2ccc(OC)cc2)nn1-c1ccccc1C(=O)O
IC50 [5]: 21.8 µM (inactive)
IC50 [6]: 14.5 µM (active)
IC50 [7]: > 66.6 µM (inactive)

IC50 [1]: 9.22 µM (active)
IC50 [2]: 24.9 µM (inactive)
IC50 [3]: 6.62 µM (active)
IC50 [6]: 12.8 µM (active)
Structure (SMILES): COc1cccc(Nc2nn3c(=O)c4ccccc4nc3s2)c1

Structure (SMILES): COc1ccc(C2=CC(c3ccc4c(c3)OCO4)c3c(c4ccccc4oc3=O)O2)cc1OC (stereo not drawn)
EC50 (cells): > 29.9 µM (inactive)
IC50 (Galanin receptor type 3): 5.72 µM (active)

Structure (SMILES): Cc1ncoc1C(=O)NC1CCCc2c1cnn2-c1ccc(C(C)(C)C)cc1 (stereo not drawn)
IC50 [8]: > 80 µM (inactive)
IC50 (Protein Wnt-3a): 4.53 µM (active)

Structure (SMILES): Cc1cc(C)c(C)c(S(=O)(=O)N2CCN(c3ncnc4ccccc34)CC2)c1C
AC50 [9]: 1.46 µM (active)
AC50 (INS1): 2.22 µM (active)
AC50 [4]: 4.26 µM (active)
AC50 [10]: 1.91 µM (active)
AC50 [11]: 1.86 µM (active)
AC50 [12]: 34.2 µM (active)
AC50 [13]: 31.4 µM (active)
IC50 (Protein Wnt-3a): 1.96 µM (active)
AC50 [14]: 24.9 µM (active)

Structure (SMILES): COc1c(/C=C2\SC(Nc3ccccc3Cl)=NC2=O)cccc1[N+](=O)[O-]
EC50 (cells): > 29.9 µM (inactive)
IC50 (Galanin receptor type 3): 0.547 µM (active)

Structure (SMILES): O=C(CSc1nc(C2CC2)nc2ccccc12)Nc1cccc(O)c1
IC50 [5]: 20.4 µM (inactive)
IC50 [7]: > 66.6 µM (inactive)

Structure (SMILES): O=C(Nc1ccc2oc(=O)ccc2c1)c1ccc(-c2ccccc2[N+](=O)[O-])o1
IC50 [5]: 10.2 µM (active)
IC50 [7]: > 66.6 µM (inactive)

Structure (SMILES): O=C(NCCCl)NNc1c(Cl)cc(Cl)cc1Cl
EC50 (cells): > 29.9 µM (inactive)
IC50 (Galanin receptor type 3): > 29.9 µM (inactive)

Source: ChEMBL document CHEMBL1201862, “PubChem BioAssay data set” (2004)
